The assay has as its target human NAMPT (Homo sapiens, UniProt P43490). Briefly: Human recombinant enzyme assay (NMN fluorescence biochemical assay, activation of NAMPT). Here is the method:
Compounds described herein were assayed for their ability to stimulate the synthesis of nicotinamide mononucleotide (NMN) by the enzyme NAMPT. The human recombinant enzyme assay measures the activation of the enzyme activity by compounds using recombinant enzyme and substrates in a buffered cell-free system. The assay conditions closely mimic cellular environments. Dose responses were measured using an assay to detect the formation of nicotinamide mono-nucleotide. All experiments were performed in the 384-well format. […] Enzyme reactions were initiated with the addition of 10 μL of a solution containing the substrates. The final assay conditions were as follows: 6 nM human NAMPT, 2.5 mM ATP, 20 μM PRPP and 150 μM nicotinamide in 50 mM HEPES, pH 7.2, 1 mM DTT, 1 mM CHAPS 50 mM NaCl, 100 mM MgCl2. Following an incubation of 60 min at ambient temperature, 10 μL of 20% acetophenone in DMSO was added, followed by 10 μL of 2 M KOH and 40 μL of formic acid. The plates were read for fluorescence (Excitation/Emission=355 nm/460 nm) using an EnVision plate reader after 40 mins of incubation at ambient temperature.

Setting [1] is: Table A, human recombinant NAMPT, NMN formation, 60 min.
The mark [2] stands for this setting: Table A, human recombinant NAMPT, NMN formation, 60 min, read-out: EC50 Human.

Read-outs that look alike come from different tables or passages of the source.

Chain of human NAMPT (P43490 whole entry): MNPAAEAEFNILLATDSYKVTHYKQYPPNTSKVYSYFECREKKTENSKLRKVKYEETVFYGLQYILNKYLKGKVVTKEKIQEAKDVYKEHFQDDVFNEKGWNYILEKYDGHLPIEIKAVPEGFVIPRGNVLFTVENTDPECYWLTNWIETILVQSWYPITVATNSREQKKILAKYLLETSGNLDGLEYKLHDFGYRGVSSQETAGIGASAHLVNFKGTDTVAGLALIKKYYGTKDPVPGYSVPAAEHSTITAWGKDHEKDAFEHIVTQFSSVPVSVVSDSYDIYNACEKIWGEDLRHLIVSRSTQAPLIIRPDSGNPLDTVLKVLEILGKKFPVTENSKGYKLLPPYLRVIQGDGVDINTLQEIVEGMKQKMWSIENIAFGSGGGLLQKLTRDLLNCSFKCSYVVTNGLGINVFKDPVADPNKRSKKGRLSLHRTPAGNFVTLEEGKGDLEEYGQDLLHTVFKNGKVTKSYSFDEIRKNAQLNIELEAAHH

Broadly, the EC50 is the concentration that produces a half-maximal response. Consider `O=C(NCc1ccc(Cl)cc1)NC1CC2(CC(CNC(=O)C3CCCC3)C2)C1` (centres unmarked) [Compound 251, N-((6-(3-(4-chlorobenzyl)ureido)spiro[3.3]heptan-2-yl)methyl)cyclopentanecarboxamide], for which, under setting [1], the “AC1.4 Human” value was found to be 2.6 µM. For the same molecule, the concentration giving a half-maximal response (EC50) under setting [2] was found to be 6.1 µM.
In the case of `COc1ccc(CNC(=O)NC2CC3(C2)CC(C(=O)N[C@@H]2CCc4ccccc42)C3)cc1` (stereo partly drawn) [Compound 91, (R)-N-(2,3-dihydro-1H-inden-1-yl)-6-(3-(4-methoxybenzyl)ureido)spiro[3.3]heptane-2-carboxamide], the “AC1.4 Human” value under setting [1] is 3.7 µM. Also, the 50% effective concentration (EC50) under setting [2] came out at 13 µM.
On to `O=C(Cc1cccnc1)NCCCCCNC(=O)NCc1ccc(Cl)cc1` [Compound 283, N-(5-(3-(4-chlorobenzyl)ureido)pentyl)-2-(pyridin-3-yl)acetamide], for which, under setting [1], the “AC1.4 Human” value is 8.6 µM. For the same molecule, the EC50 under setting [2] was determined as 32.8 µM.
For `O=C(NCc1ccc(Cl)cc1)NC1CC2(C1)CC(NC(=O)c1cccnc1)C2` (centres unmarked) [Compound 184, N-(6-(3-(4-chlorobenzyl)ureido)spiro[3.3]heptan-2-yl)nicotinamide], in that order: 10.0 µM and 37.9 µM.
As for `CS(=O)(=O)c1cccc(C(=O)NC2CC3(CC(NC(=O)NCc4ccc(Cl)cc4)C3)C2)c1` (centres unmarked) [Compound 195, N-(6-(3-(4-chlorobenzyl)ureido)spiro[3.3]heptan-2-yl)-3-(methylsulfonyl)benzamide], the “AC1.4 Human” value under setting [1] was determined as 17.1 µM. Moreover, the 50% effective concentration (EC50) under setting [2] was determined as 23.5 µM.
As for `O=C(NCCCCC1CCN(C(=O)c2ncco2)CC1)NCc1ccc(Cl)cc1` [Compound 305, 1-(4-chlorobenzyl)-3-(4-(1-(oxazole-2-carbonyl)piperidin-4-yl)butyl)urea], under setting [1], the “AC1.4 Human” value was 0.2 µM. Besides, the EC50 under setting [2] was 0.4 µM.
For `Cc1ccc(NC(=O)CCCCCNC(=O)NCc2ccc(Cl)cc2)cn1` [Compound 278, 6-(3-(4-chlorobenzyl)ureido)-N-(6-methylpyridin-3-yl)hexanamide], under setting [1], the “AC1.4 Human” value stood at 1.8 µM. Besides, the EC50 under setting [2] came out at 7.1 µM.
For `O=C(NCCCCC1CCN(c2ccncc2)CC1)NCc1ccc(Cl)cc1` [Compound 308, 1-(4-chlorobenzyl)-3-(4-(1-(pyridin-4-yl)piperidin-4-yl)butyl)urea], in that order: 2.2 µM and 5 µM.
For `COc1ccc(CNC(=O)NC2CC3(C2)CC(C(=O)NCCc2cn[nH]c2)C3)cc1` (centres unmarked) [Compound 75, N-(2-(1H-pyrazol-4-yl)ethyl)-6-(3-(4-methoxybenzyl)ureido)spiro[3.3]heptane-2-carboxamide], in that order: 11.5 µM and 42 µM.
Consider `O=C(NCc1ccc(Cl)cc1)NC1CC2(C1)CC(Oc1ccncc1)C2` (centres unmarked) [Compound 341, 1-(4-chlorobenzyl)-3-(6-(pyridin-4-yloxy)spiro[3.3]heptan-2-yl)urea], for which the “AC1.4 Human” value under setting [1] was 3.9 µM. In addition, the EC50 under setting [2] came to 2 µM.
The matching figures for `O=C(NCc1ccc(Cl)cc1)NC1CC2(C1)CC(OCc1cccnc1)C2` (centres unmarked) [Compound 350, 1-(4-chlorobenzyl)-3-(6-(pyridin-3-ylmethoxy)spiro[3.3]heptan-2-yl)urea]: 1.7 µM and 6.1 µM.
In the case of `COc1ccc(CNC(=O)NC2CC3(C2)CC(C(=O)N[C@@H]2CCc4ccccc4C2)C3)cc1` (stereo partly drawn) [Compound 96, (R)-6-(3-(4-methoxybenzyl)ureido)-N-(1,2,3,4-tetrahydronaphthalen-2-yl)spiro[3.3]heptane-2-carboxamide], under setting [1], the “AC1.4 Human” value stood at 2.6 µM. The EC50 under setting [2] was determined as 4.1 µM.
For `COc1ccc(CNC(=O)NC2CC3(C2)CN(C(=O)c2ccccc2C)C3)cc1` [Compound 148, 1-(4-methoxybenzyl)-3-(2-(2-methylbenzoyl)-2-azaspiro[3.3]heptan-6-yl)urea], in that order: 3.9 µM and 47.1 µM.
The matching figures for `NC(=O)c1ccc(CNC(=O)NC2CC3(C2)CN(C(=O)c2cccc(N4CCCC4)c2)C3)cc1` [Compound 222, 4-((3-(2-(3-(pyrrolidin-1-yl)benzoyl)-2-azaspiro[3.3]heptan-6-yl)ureido)methyl)benzamide]: 0.2 µM and 28.6 µM.
The matching figures for `O=C(NCCCCCNC(=O)c1cccnc1)NCc1ccc(Cl)cc1` [Compound 277, N-(5-(3-(4-chlorobenzyl)ureido)pentyl)nicotinamide]: 3.2 µM and 6.9 µM.
Turning to `CC(C)(C)OC(=O)NC1CC2(CC(NC(=O)NCc3ccncc3)C2)C1` (centres unmarked) [Compound 6, tert-butyl (6-(3-(pyridin-4-ylmethyl)ureido)spiro[3.3]heptan-2-yl)carbamate], the “AC1.4 Human” value under setting [1] worked out at 4.5 µM. Further, under setting [2], the EC50 stood at 26.8 µM.
For `O=C(NCCCCC1CCN(C(=O)Cc2cccnc2)CC1)NCc1ccc(Cl)cc1` [Compound 294, 1-(4-chlorobenzyl)-3-(4-(1-(2-(pyridin-3-yl)acetyl)piperidin-4-yl)butyl)urea], in that order: 1.0 µM and 10.1 µM.
As for `COc1ccc(CNC(=O)NC2CC3(C2)CN(C(=O)C(C)(C)c2ccc(C)cc2)C3)cc1` [Compound 153, 1-(4-methoxybenzyl)-3-(2-(2-methyl-2-(p-tolyl)propanoyl)-2-azaspiro[3.3]heptan-6-yl)urea], the “AC1.4 Human” value under setting [1] worked out at 2.3 µM. Besides, the EC50 under setting [2] is 26.3 µM.
For `COc1ccc(CNC(=O)NC2CC3(C2)CN(C(=O)c2ccc(C(F)(F)F)cc2)C3)cc1` [Compound 147, 1-(4-methoxybenzyl)-3-(2-(4-(trifluoromethyl)benzoyl)-2-azaspiro[3.3]heptan-6-yl)urea], in that order: 5.8 µM and 58.2 µM.
The matching figures for `Cc1ccccc1C(=O)N1CCC(CCCCNC(=O)NCc2ccncc2)CC1` [Compound 323, 1-(4-(1-(2-methylbenzoyl)piperidin-4-yl)butyl)-3-(pyridin-4-ylmethyl)urea]: 0.2 µM and 1.6 µM.
For `O=C(NCCCCC1CCN(c2ccccn2)CC1)NCc1ccc(Cl)cc1` [Compound 307, 1-(4-chlorobenzyl)-3-(4-(1-(pyridin-2-yl)piperidin-4-yl)butyl)urea], under setting [1], the “AC1.4 Human” value is 1.9 µM. For the same molecule, under setting [2], the concentration giving a half-maximal response (EC50) was 7.3 µM.
The matching figures for `COc1ccc(CNC(=O)NC2CC3(C2)CC(C(=O)NCC(C)(C)c2ccccc2C)C3)cc1` (centres unmarked) [Compound 54, 6-(3-(4-methoxybenzyl)ureido)-N-(2-methyl-2-(o-tolyl)propyl)spiro[3.3]heptane-2-carboxamide]: 1.4 µM and 29.4 µM.
Turning to `O=C(Cc1ccccc1)NC1CC2(C1)CC(NC(=O)NCc1ccc(Cl)cc1)C2` (centres unmarked) [Compound 115, N-(6-(3-(4-chlorobenzyl)ureido)spiro[3.3]heptan-2-yl)-2-phenylacetamide], the “AC1.4 Human” value under setting [1] was 10.2 µM. The EC50 under setting [2] was 14.7 µM.
As for `CN(C(=O)CCCCCNC(=O)NCc1ccc(Cl)cc1)c1ccccn1` [Compound 271, 6-(3-(4-chlorobenzyl)ureido)-N-methyl-N-(pyridin-2-yl)hexanamide], under setting [1], the “AC1.4 Human” value is 0.9 µM. In addition, the 50% effective concentration (EC50) under setting [2] was 3.7 µM.
For `COc1ccc(CNC(=O)NC2CC3(C2)CN(C(=O)C2(c4ccccc4)CC2)C3)cc1` [Compound 143, 1-(4-methoxybenzyl)-3-(2-(1-phenylcyclopropane-1-carbonyl)-2-azaspiro[3.3]heptan-6-yl)urea], in that order: 8.0 µM and 45.6 µM.
With `NC(=O)c1ccc(CNC(=O)NC2CC3(C2)CC(Nc2ccccn2)C3)cc1` (centres unmarked) [Compound 26, 4-((3-(6-(pyridin-2-ylamino)spiro[3.3]heptan-2-yl)ureido)methyl)benzamide], the EC50 was determined as 16.7 µM. Under setting [1], the “AC1.4 Human” value amounted to 2.0 µM.
Turning to `COc1ccc(CNC(=O)NC2CC3(C2)CC(C(=O)NCC(C)(C)c2ccccc2OC)C3)cc1` (centres unmarked) [Compound 64, 6-(3-(4-methoxybenzyl)ureido)-N-(2-(2-methoxyphenyl)-2-methylpropyl)spiro[3.3]heptane-2-carboxamide], under setting [1], the “AC1.4 Human” value worked out at 1.4 µM. Further, under setting [2], the concentration for a half-maximal effect (EC50) stood at 50.1 µM.
The matching figures for `O=C(NCCCCCNC(=O)c1ccccn1)NCc1ccc(Cl)cc1` [Compound 279, N-(5-(3-(4-chlorobenzyl)ureido)pentyl)picolinamide]: 1.8 µM and 11.8 µM.
In the case of `CC(C)(C)OC(=O)NC1CC2(CC(NC(=O)NCc3ccc(Cl)cc3)C2)C1` (racemic) [Compound 8], the half-maximal effective concentration (EC50) under setting [2] was 5.1 µM.
As to `O=C(NCCCCC1CCN(C(=O)c2ccno2)CC1)NCc1ccc(Cl)cc1` [Compound 306, 1-(4-chlorobenzyl)-3-(4-(1-(isoxazole-5-carbonyl)piperidin-4-yl)butyl)urea], under setting [1], the “AC1.4 Human” value came to 0.4 µM. In addition, under setting [2], the half-maximal effective concentration (EC50) was determined as 1.2 µM.
For `COc1ccc(CNC(=O)NC2CC3(C2)CC(C(=O)N2CCN(C(C)C)CC2)C3)cc1` (centres unmarked) [Compound 122, 1-(6-(4-isopropylpiperazine-1-carbonyl)spiro[3.3]heptan-2-yl)-3-(4-methoxybenzyl)urea], in that order: 5.9 µM and 47.6 µM.
With `COc1ccc(CNC(=O)NCC2CC23CCN(C(=O)OC(C)(C)C)CC3)cc1` (centres unmarked) [Compound 28, tert-butyl 1-((3-(4-methoxybenzyl)ureido)methyl)-6-azaspiro[2.5]octane-6-carboxylate], under setting [2], the concentration giving a half-maximal response (EC50) turned out to be 42.5 µM.

These data come from patent publication US20230348369A1 (Cytokinetics, Inc., priority 2020, published 2023).
